Reference: paper PMC10820527, “Synthesis, Characterization, and Investigation of Anti-Inflammatory and Cytotoxic Activities of Novel Thiourea Derivatives of Naproxen” (Pharmaceutics, 2023)
Read-outs that look alike come from different tables or passages of the source.

Tests used:
MDA-MB-231 = assay: MTT cytotoxicity assay, MDA-MB-231; type: cell-based, human; settings: mean ± SD
Procedure: (§1) Three cancer cell lines (MDA-MB-231, HCT116 and HeLa; i.e., human breast cancer cells, human colorectal cancer cells, and human cervical cancer cells, respectively), and one non-malignant fibroblast MRC-5 cell line (control) were used in this study. The American Type Cell Collection (ATCC, Manassas, VA, USA) provided all examined cell lines. The cells were grown in a complete medium made up of high-glucose DMEM media supplemented with 10% fetal bovine serum and […] L-glutamine (both from Sigma-Aldrich, USA). The cells were cultured in 25 cc flasks (Thermo Fischer Scientific, Waltham, MA, USA) at 37 °C with 100% humidity in a 5% CO2 atmosphere.
(§2) The MTT test was used to assess the cytotoxicity of compounds 1–14 [44]. The cytotoxicity of naproxen was also investigated due to its clinical use and structural similarity. Throughout the exponential development period, cells were taken from culture flasks and counted, and 5 × 10^3 cells/well were planted into 96-well culture plates. Following that, the cell lines were treated with varying doses of the investigated chemicals (1–14), naproxen ([…]), and fresh complete media as a control. All evaluated cells were incubated for 24, 48, and 72 h at 37 °C in an environment containing 5% CO2 and 100% humidity. Following incubation, each well’s culture media was taken out, each well received an addition of MTT solution at a final concentration of 0.5 mg/mL, and the cells were left to incubate for an additional four hours. The MTT solution was then withdrawn carefully, and the formazan crystals were dissolved in DMSO. After shaking the plates for 10 min, absorbance at 595 nm was measured using a multiplate reader (Zenyth 3100, Anthos Labtec Instruments, Salzburg, Austria). All concentrations of the tested compounds were performed in three separate wells of the microtiter plates and in three separate experiments. The results were reported as a ratio to the control value, untreated cells. IC50 values were also determined using Microsoft Office Excel 2021. The percentage of viable cells was estimated by dividing the readout absorbance value in the wells containing treated cells by the average absorbance value measured in the wells containing untreated cells, and multiplying the result by 100 [44]. % of the viable cells = ((absorbance of treated cell-absorbance of blank)/(absorbance of untreated cell-absorbance of blank)) × 100(3)

HeLa = assay: MTT cytotoxicity assay, HeLa; type: cell-based, human; settings: mean ± SD
Procedure: as §1, §2

[1] = test system: MRC-5 fibroblast cell line; assay: MTT cytotoxicity assay, MRC-5; type: cell-based; settings: for IC50: mean ± SD
Procedure: as §1, §2

HCT 116 = assay: MTT cytotoxicity assay, HCT 116; type: cell-based, human; settings: for IC50: mean ± SD
Procedure: as §1, §2

5-LOX = target: T1, 5-LOX (Homo sapiens, UniProt P09917); design: method as in PMID 37242450; settings: among compounds 1–5, previously published study ref 37; cited from earlier work
T1 construct: purchased Abcam
T1 sequence (P09917 1-674): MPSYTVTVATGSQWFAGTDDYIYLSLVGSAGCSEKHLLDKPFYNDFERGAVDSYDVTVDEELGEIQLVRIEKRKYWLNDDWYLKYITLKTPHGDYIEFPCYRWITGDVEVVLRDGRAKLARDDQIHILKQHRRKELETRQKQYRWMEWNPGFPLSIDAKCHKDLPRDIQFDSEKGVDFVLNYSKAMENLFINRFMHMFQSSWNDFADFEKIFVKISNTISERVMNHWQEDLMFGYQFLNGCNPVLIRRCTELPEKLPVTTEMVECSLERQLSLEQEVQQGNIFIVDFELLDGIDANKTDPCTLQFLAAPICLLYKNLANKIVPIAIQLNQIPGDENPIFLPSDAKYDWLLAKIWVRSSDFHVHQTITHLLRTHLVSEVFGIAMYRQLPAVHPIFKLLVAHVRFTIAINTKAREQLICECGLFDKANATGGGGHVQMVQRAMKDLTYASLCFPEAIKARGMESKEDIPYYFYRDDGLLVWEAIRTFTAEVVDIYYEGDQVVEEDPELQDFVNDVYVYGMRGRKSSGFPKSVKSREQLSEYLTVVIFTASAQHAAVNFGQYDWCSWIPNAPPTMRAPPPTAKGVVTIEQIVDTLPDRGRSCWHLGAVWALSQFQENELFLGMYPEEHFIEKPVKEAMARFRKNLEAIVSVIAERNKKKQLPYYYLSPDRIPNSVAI

[2] = test system: carrageenan-induced rat paw edema; assay: Carrageenan-induced rat paw edema model; type: in vivo; settings: for Rat Paw Thickness: mean ± SD; for inhibition in vivo at 2.5 mg/kg / inhibition in vivo at 5 mg/kg / inhibition in vivo at 10 mg/kg: Rattus norvegicus
Procedure: The Carrageenan-induced rat paw edema model was used to assess the anti-inflammatory potential of novel compounds 8–14. Induction of inflammation was performed in all animals by intraplantar injection of […] 0.5% carrageenan saline into the left hind paw.
Animals (n = 200) were randomly divided into the following groups: control groups, that received either 1% DMSO or naproxen, and experimental groups, that received the novel compounds 8–14.
Control groups included DMSO and naproxen groups. Rats belonging to the DMSO group received 1% DMSO in the same volume as the compounds 8–14, 60 min before carrageenan injection. Moreover, naproxen groups included rats that were subjected to naproxen treatment in three doses: 2.5 mg/kg, 5 mg/kg, and 10 mg/kg. Naproxen was applied in the same manner as 1% DMSO.
Experimental groups included rats that were treated with compounds 8–14 and they were divided into three subgroups depending on the applied dose: 2.5 mg/kg, 5 mg/kg, and 10 mg/kg. The examined compounds were dissolved in 1% DMSO prior to treatment and applied to rats 60 min before inducing inflammation, i.e., before carrageenan injection. Doses of naproxen and investigated compounds were defined based on our previously published research.
In order to quantify the anti-inflammatory effects of the tested compounds, left paw thickness was measured at specific time points: prior to inflammation induction (moment 0) and 1, 2, 3, and 4 h (moments 1, 2, 3, and 4) following carrageenan injection. Tissue thickness was measured in the middle of the rat paw using a Digital Vernier caliper (Aerospace, China). The percentage of inhibition of paw edema after treatment with different agents was calculated according to the formula, Equation (2):% Inhibition = 100 × [1 − (Yt/Yc)](2) where Yt = average increase in paw thickness in the treated group of rats between two measurement moments, and Yc = average increase in paw thickness in the untreated group of rats between two measurement moments.

[3] = test system: MCF-7, MDA-MB-231, HeLa, and HCT-116; settings: cited from earlier work
[4] = read-out: IC50 (cytotoxic activity of reference drugs), range over MCF-7, MDA-MB-231, HeLa, and HCT-116

## COc1cccc(NC(=S)NC(=O)[C@@H](C)c2ccc3cc(OC)ccc3c2)c1 [Compound 4]
MDA-MB-231; 24 h
  IC50: > 200 µM
MDA-MB-231; 48 h
  IC50: > 200 µM
MDA-MB-231; 72 h
  IC50: 110 ± 12.9 µM
HeLa; 24 h
  IC50: > 200 µM
HeLa; 48 h
  IC50: 101 ± 12.2 µM
HeLa; 72 h
  IC50: 90.8 ± 8.3 µM
[1]; 24 h
  IC50: > 200 µM
[1]; 48 h
  IC50: > 200 µM
[1]; 72 h
  IC50: > 200 µM
HCT 116
  Cytotoxic effect against the HCT 116 cell line (in words): moderate cytotoxic effects
HCT 116; 48 h
  IC50: 106 ± 12.9 µM
HCT 116; 72 h
  IC50: 71.6 ± 9.9 µM
5-LOX
  5-LOX inhibition (in words): strongest 5-LOX inhibition

## COc1ccc2cc([C@H](C)C(=O)O)ccc2c1 [Naproxen, naproxen]
[2]; 2.5 mg/kg, 1 h after carrageenan
  Rat Paw Thickness: 6.35 ± 0.15 mm
[2]; 2.5 mg/kg, 2 h after carrageenan
  Rat Paw Thickness: 6.02 ± 0.15 mm
[2]; 2.5 mg/kg, 3 h after carrageenan
  Rat Paw Thickness: 5.75 ± 0.20 mm
[2]; 2.5 mg/kg, 4 h after carrageenan
  Rat Paw Thickness: 5.18 ± 0.20 mm
[2]; 5.0 mg/kg, 1 h after carrageenan
  Rat Paw Thickness: 6.02 ± 0.20 mm
[2]; 5.0 mg/kg, 2 h after carrageenan
  Rat Paw Thickness: 5.52 ± 0.30 mm
[2]; 5.0 mg/kg, 3 h after carrageenan
  Rat Paw Thickness: 5.22 ± 0.30 mm
[2]; 5.0 mg/kg, 4 h after carrageenan
  Rat Paw Thickness: 4.98 ± 0.24 mm
[2]; 10.0 mg/kg, 1 h after carrageenan
  Rat Paw Thickness: 5.88 ± 0.23 mm
[2]; 10.0 mg/kg, 2 h after carrageenan
  Rat Paw Thickness: 5.55 ± 0.45 mm
[2]; 10.0 mg/kg, 3 h after carrageenan
  Rat Paw Thickness: 5.35 ± 0.32 mm
[2]; 10.0 mg/kg, 4 h after carrageenan
  Rat Paw Thickness: 4.95 ± 0.35 mm
[2]; 2.5 mg/kg, 1 h
  inhibition in vivo at 2.5 mg/kg: 19.7%
[2]; 2.5 mg/kg, 2 h
  inhibition in vivo at 2.5 mg/kg: 25.8%
[2]; 2.5 mg/kg, 3 h
  inhibition in vivo at 2.5 mg/kg: 26.1%
[2]; 2.5 mg/kg, 4 h
  inhibition in vivo at 2.5 mg/kg: 46.7%
[2]; 5.0 mg/kg, 1 h
  inhibition in vivo at 5 mg/kg: 27.9%
[2]; 5.0 mg/kg, 2 h
  inhibition in vivo at 5 mg/kg: 42.4%
[2]; 5.0 mg/kg, 3 h
  inhibition in vivo at 5 mg/kg: 47.7%
[2]; 5.0 mg/kg, 4 h
  inhibition in vivo at 5 mg/kg: 51.1%
[2]; 10.0 mg/kg, 1 h
  inhibition in vivo at 10 mg/kg: 36.1%
[2]; 10.0 mg/kg, 2 h
  inhibition in vivo at 10 mg/kg: 43.9%
[2]; 10.0 mg/kg, 3 h
  inhibition in vivo at 10 mg/kg: 45.9%
[2]; 10.0 mg/kg, 4 h
  inhibition in vivo at 10 mg/kg: 57.8%
MDA-MB-231; Homo sapiens, MDA-MB-231, 24 h, 24 h
  IC50: > 200 µM
MDA-MB-231; Homo sapiens, MDA-MB-231, 48 h, 48 h
  IC50: > 200 µM
MDA-MB-231; Homo sapiens, MDA-MB-231, 72 h, 72 h
  IC50: > 200 µM
HeLa; Homo sapiens, HeLa, 24 h
  IC50: > 200 µM
HeLa; Homo sapiens, HeLa, 48 h
  IC50: > 200 µM
HeLa; Homo sapiens, HeLa, 72 h
  IC50: > 200 µM
[1]
  Effect on the viability of the MRC-5 fibroblast cell line (in words): insignificant effect
[1]; Homo sapiens, MRC5, 24 h
  IC50: > 200 µM
[1]; Homo sapiens, MRC5, 48 h
  IC50: > 200 µM
[1]; Homo sapiens, MRC5, 72 h
  IC50: > 200 µM
HCT 116; Homo sapiens, HCT-116, 24 h
  IC50: > 200 µM
HCT 116; Homo sapiens, HCT-116, 48 h
  IC50: > 200 µM
HCT 116; Homo sapiens, HCT-116, 72 h
  IC50: > 200 µM

## CN(C)C/C=C/C(=O)Nc1cc2c(Nc3ccc(F)c(Cl)c3)ncnc2cc1O[C@H]1CCOC1 [afatinib]
[3]
  IC50: 6.2 to 11.4 µM

## Cc1ccc(-c2cc(C(F)(F)F)nn2-c2ccc(S(N)(=O)=O)cc2)cc1 [celecoxib]
[3]; [4]
  IC50: 22.8 to 42.7 µM

## COc1cccc2c1C(=O)c1c(O)c3c(c(O)c1C2=O)C[C@@](O)(C(=O)CO)C[C@@H]3O[C@H]1C[C@H](N)[C@H](O)[C@H](C)O1 [doxorubicin]
[3]; [4]
  IC50: 3.18 to 26.8 µM
